The source of these data is patent US20240368150A1 (Hoffmann-La Roche Inc., priority 2021, published 2024).

Assay [1] concerns primary human T-cells. Kind of assay: Proliferation assay after 5 days (CellTiter-Glo, CD3 stimulation; PBS counter screen). Type of assay: cell-based. The note with it: CD3 stimulation; for EC50: primary human T-cells, CellTiter-Glo after 5 days, EC50 of fitted sigmoidal curve, read-out: Tcell Proliferation CD3 EC50; for Emax: read-out: Emax proliferation (% activation). The procedure, abridged: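 After compound addition to medium-only plates, cells are cultured 5 days, equilibrated to room temperature, mixed with an equal volume of CellTiter-Glo 2.0 and rocked 15 min before luminescence is read. Signal reflects ATP content, taken as proportional to cell number.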

In assay [2] the test system is primary human T-cells.
[3] abbreviates: Homo sapiens, T-cell, 120 h, 5 days, normalized to reference compound A1 as stimulator control = 100%, DMSO neutral control.

Read-outs that look alike come from different tables or passages of the source. Some results are limits rather than exact numbers.

As for `COC(=O)N1CC2CC(c3nc(-c4cc5c(cc4F)[S+]([O-])C[C@H](N)C(=O)N5Cc4ccc(OC(F)(F)F)cc4)no3)(C2)C1` (stereo partly drawn) [Example 336, methyl 1-[3-[(3R)-3-amino-8-fluoro-1,4-dioxo-5-[[4-(trifluoromethoxy)phenyl]methyl]-2,3-dihydro-1λ^4,5-benzothiazepin-7-yl]-1,2,4-oxadiazol-5-yl]-3-azabicyclo[3.1.1]heptane-3-carboxylate], the “Emax proliferation (% activation)” value in assay [1] (5 days, normalized to reference compound A1 as stimulator control = 100%, DMSO neutral control) is 114 % activation. The EC50 in assay [1] worked out at 1100 nM; in assay [2] it was 7020 nM.

Regarding `COC(=O)N1CCC(C#N)(c2nnc(-c3ccc4c(c3)N(Cc3ccc(Cl)cc3)C(=O)[C@@H](N)CS4(=O)=O)o2)CC1` [Example 389, methyl 4-[5-[(3R)-3-amino-5-[(4-chlorophenyl)methyl]-1,1,4-trioxo-2,3-dihydro-1λ^6,5-benzothiazepin-7-yl]-1,3,4-oxadiazol-2-yl]-4-cyano-piperidine-1-carboxylate], the Emax in assay [1] (setting [3]) is 80%. The EC50 in assay [1] (Homo sapiens, T-cell, 120 h) is 1990 nM; in assay [2], more than 2730 nM.

Regarding `CC(C)(C)c1nnc(-c2cc3c(cc2F)S(=O)(=O)C[C@H](N)C(=O)N3Cc2ccc(Cl)c(F)c2)o1` [Example 245, (3R)-3-amino-7-(5-tert-butyl-1,3,4-oxadiazol-2-yl)-5-[(4-chloro-3-fluoro-phenyl)methyl]-8-fluoro-1,1-dioxo-2,3-dihydro-1λ^6,5-benzothiazepin-4-one], the Emax in assay [1] (setting [3]) came out at 127%. Besides, the EC50 in assay [1] (Homo sapiens, T-cell, 120 h) worked out at 102 nM; in assay [2] it was 92.1 nM.

Turning to `N[C@H]1CS(=O)(=O)c2ccc(-c3nnc(C4(C(F)(F)F)CC4)o3)cc2N(Cc2ccc(Cl)cc2)C1=O` [Example 366, (3R)-3-amino-5-[(4-chlorophenyl)methyl]-1,1-dioxo-7-[5-[1-(trifluoromethyl)cyclopropyl]-1,3,4-oxadiazol-2-yl]-2,3-dihydro-1λ^6,5-benzothiazepin-4-one], the Emax in assay [1] (setting [3]) amounted to 106%. Further, the EC50 in assay [1] (Homo sapiens, T-cell, 120 h) was determined as 677 nM; in assay [2], 584 nM.

As for `CN(C)c1cc2c(cc1-c1nnc(C(C)(C)C)o1)N(Cc1ccc(Cl)cc1)C(=O)[C@@H](N)CS2(=O)=O` [Example 274, (3R)-3-amino-7-(5-tert-butyl-1,3,4-oxadiazol-2-yl)-5-[(4-chlorophenyl)methyl]-8-(dimethylamino)-1,1-dioxo-2,3-dihydro-1λ^6,5-benzothiazepin-4-one], the Emax in assay [1] (setting [3]) stood at 10%. For the same compound, the EC50 in assay [1] (Homo sapiens, T-cell, 120 h) is more than 20000 nM; in assay [2] it was more than 20000 nM.

Turning to `N[C@H]1CS(=O)(=O)c2cc(F)c(-c3nnc(CC(F)(F)F)o3)cc2N(Cc2ccc(Cl)cc2)C1=O` [Example 68, (3R)-3-Amino-5-[(4-chlorophenyl)methyl]-8-fluoro-1,1-dioxo-7-[5-(2,2,2-trifluoroethyl)-1,3,4-oxadiazol-2-yl]-2,3-dihydro-1λ^6,5-benzothiazepin-4-one], in assay [1] (setting [3]), the Emax came to 91%. Further, the EC50 in assay [1] (Homo sapiens, T-cell, 120 h) is 5140 nM; in assay [2], more than 20000 nM.

For `CC(C)(C)c1nnc(-c2cc3c(cc2Br)S(=O)(=O)C[C@H](N)C(=O)N3Cc2ccc(Cl)cc2)o1` [Example 271, (3R)-3-amino-8-bromo-7-(5-tert-butyl-1,3,4-oxadiazol-2-yl)-5-[(4-chlorophenyl)methyl]-1,1-dioxo-2,3-dihydro-1λ^6,5-benzothiazepin-4-one], the Emax in assay [1] (setting [3]) was found to be 91%. Also, the EC50 stood at 3190 nM in assay [1] (Homo sapiens, T-cell, 120 h) and 4810 nM in assay [2].

On to `N[C@H]1CS(=O)(=O)c2cc(F)c(-c3noc(NC4CC(F)(F)C4)n3)cc2N(Cc2ccc(Cl)cc2)C1=O` [Example 206], for which the Emax in assay [1] (setting [3]) was 168%. For the same compound, the EC50 in assay [1] (Homo sapiens, T-cell, 120 h) stood at 157 nM; in assay [2], 542 nM.

With `Cc1cccc(F)c1-c1nnc(-c2cc3c(cc2F)S(=O)(=O)C[C@H](N)C(=O)N3Cc2ccc(Cl)cc2)o1` [Example 100, (3R)-3-amino-5-[(4-chlorophenyl)methyl]-8-fluoro-7-[5-(2-fluoro-6-methyl-phenyl)-1,3,4-oxadiazol-2-yl]-1,1-dioxo-2,3-dihydro-1λ^6,5-benzothiazepin-4-one], the Emax in assay [1] (setting [3]) turned out to be 89%. Also, the EC50 was found to be 49.6 nM in assay [1] (Homo sapiens, T-cell, 120 h) and 484 nM in assay [2].

`CN1CCCC(c2nnc(-c3cc4c(cc3F)S(=O)(=O)C[C@H](N)C(=O)N4Cc3ccc(Cl)cc3)o2)C1` (stereo partly drawn) [Example 154, (3R)-3-amino-5-[(4-chlorophenyl)methyl]-8-fluoro-7-[5-(1-methyl-3-piperidyl)-1,3,4-oxadiazol-2-yl]-1,1-dioxo-2,3-dihydro-1λ^6,5-benzothiazepin-4-one]: the Emax in assay [1] (setting [3]) was 86%. The EC50 was 1720 nM in assay [1] (Homo sapiens, T-cell, 120 h) and 890 nM in assay [2].

Turning to `COc1ccc(CN2C(=O)[C@@H](N)CS(=O)(=O)c3cc(F)c(-c4nnc(C(C)(C)C)o4)cc32)nc1` [Example 228, (3R)-3-amino-7-(5-tert-butyl-1,3,4-oxadiazol-2-yl)-8-fluoro-5-[(5-methoxy-2-pyridyl)methyl]-1,1-dioxo-2,3-dihydro-1λ^6,5-benzothiazepin-4-one], the Emax in assay [1] (setting [3]) is 112%. Also, the EC50 is 1740 nM in assay [1] (Homo sapiens, T-cell, 120 h) and 5200 nM in assay [2].

In the case of `N[C@H]1CS(=O)(=O)c2cc(F)c(-c3nnc(CC4CC(F)(F)C4)o3)cc2N(Cc2ccc(Cl)cc2)C1=O` [Example 77, (3R)-3-Amino-5-[(4-chlorophenyl)methyl]-7-[5-[(3,3-difluorocyclobutyl)methyl]-1,3,4-oxadiazol-2-yl]-8-fluoro-1,1-dioxo-2,3-dihydro-1λ^6,5-benzothiazepin-4-one], the Emax in assay [1] (setting [3]) was determined as 183%. Besides, the EC50 in assay [2] came out at 341 nM.

Turning to `CC(C)(C)c1nnc(-c2cc3c(cc2F)S(=O)(=O)C[C@H](N)C(=O)N3Cc2ccc(OC3CCCC3)nc2)o1` [Example 248, (3R)-3-amino-7-(5-tert-butyl-1,3,4-oxadiazol-2-yl)-5-[[6-(cyclopentoxy)-3-pyridyl]methyl]-8-fluoro-1,1-dioxo-2,3-dihydro-1λ^6,5-benzothiazepin-4-one], the Emax in assay [1] (setting [3]) stood at 157%. Further, the EC50 was 440 nM in assay [1] (Homo sapiens, T-cell, 120 h) and 140 nM in assay [2].

As for `N[C@H]1CS(=O)(=O)c2cc(F)c(-c3noc(N4CCOC(F)(F)C4)n3)cc2N(Cc2ccc(Cl)cc2)C1=O` [Example 204, (3R)-3-amino-5-[(4-chlorophenyl)methyl]-7-[5-(2,2-difluoromorpholin-4-yl)-1,2,4-oxadiazol-3-yl]-8-fluoro-1,1-dioxo-2,3-dihydro-1λ^6,5-benzothiazepin-4-one], the Emax in assay [1] (setting [3]) amounted to 154%. The EC50 in assay [1] (Homo sapiens, T-cell, 120 h) came out at 34.8 nM; in assay [2], 78.5 nM.

`CC(C)(C)c1nnc(-c2cc3c(cc2F)S(=O)(=O)C[C@H](N)C(=O)N3Cc2ccc(Cl)nn2)o1` [Example 251, (3R)-3-amino-7-(5-tert-butyl-1,3,4-oxadiazol-2-yl)-5-[(6-chloropyridazin-3-yl)methyl]-8-fluoro-1,1-dioxo-2,3-dihydro-1λ^6,5-benzothiazepin-4-one]: in assay [1] (setting [3]), the Emax stood at 66%. In addition, the EC50 in assay [1] (Homo sapiens, T-cell, 120 h) was 5300 nM; in assay [2], more than 10000 nM.

Consider `CC1(c2nnc(-c3cc4c(cc3F)S(=O)(=O)C[C@H](N)C(=O)N4Cc3ccc(Cl)cc3)o2)CCN(S(C)(=O)=O)CC1` [Example 170, (3R)-3-amino-5-[(4-chlorophenyl)methyl]-8-fluoro-7-[5-(4-methyl-1-methylsulfonyl-4-piperidyl)-1,3,4-oxadiazol-2-yl]-1,1-dioxo-2,3-dihydro-1λ^6,5-benzothiazepin-4-one], for which the Emax in assay [1] (setting [3]) amounted to 97%. In addition, the EC50 in assay [1] (Homo sapiens, T-cell, 120 h) worked out at 1500 nM; in assay [2], 405 nM.

As for `NC(c1nc(-c2cc3c(cc2F)S(=O)(=O)C[C@H](N)C(=O)N3Cc2ccc(OC(F)(F)F)cc2)no1)C(F)(F)F` (stereo partly drawn) [Example 329, (3R)-3-amino-7-[5-(1-amino-2,2,2-trifluoro-ethyl)-1,2,4-oxadiazol-3-yl]-8-fluoro-1,1-dioxo-5-[[4-(trifluoromethoxy)phenyl]methyl]-2,3-dihydro-1λ^6,5-benzothiazepin-4-one], the Emax in assay [1] (setting [3]) is 70%. For the same compound, the EC50 is 5330 nM in assay [1] (Homo sapiens, T-cell, 120 h) and 198 nM in assay [2].

`COC(F)(c1nc(-c2cc3c(cc2F)[S+]([O-])C[C@H](N)C(=O)N3Cc2ccc(Cl)cc2)no1)C(F)(F)F` (stereo partly drawn) [Example 338, (3R)-3-amino-5-[(4-chlorophenyl)methyl]-8-fluoro-1-oxo-7-[5-(1,2,2,2-tetrafluoro-1-methoxy-ethyl)-1,2,4-oxadiazol-3-yl]-2,3-dihydro-1λ^4,5-benzothiazepin-4-one]: in assay [1] (setting [3]), the Emax was 137%. The EC50 in assay [1] (Homo sapiens, T-cell, 120 h) worked out at 282 nM; in assay [2], 1580 nM.

Turning to `CC1(C#N)CCN(c2nnc(-c3cc4c(cc3F)S(=O)(=O)C[C@H](N)C(=O)N4Cc3ccc(Cl)cc3)o2)CC1` [Example 468, 4-methyl-1-[5-[(3R)-3-amino-5-[(4-chlorophenyl)methyl]-8-fluoro-1,1,4-trioxo-2,3-dihydro-1λ^6,5-benzothiazepin-7-yl]-1,3,4-oxadiazol-2-yl]piperidine-4-carbonitrile], the Emax in assay [1] (setting [3]) turned out to be 127%. The EC50 in assay [1] (Homo sapiens, T-cell, 120 h) is 2670 nM; in assay [2], 3780 nM.

With `COC(=O)N1CC2CC(c3nnc(-c4ccc5c(c4)N(Cc4ccc(OC(F)(F)F)cc4)C(=O)[C@@H](N)CS5(=O)=O)o3)(C2)C1` [Example 422, Methyl 1-[5-[(3R)-3-amino-1,1,4-trioxo-5-[[4-(trifluoromethoxy)phenyl]methyl]-2,3-dihydro-1λ^6,5-benzothiazepin-7-yl]-1,3,4-oxadiazol-2-yl]-3-azabicyclo[3.1.1]heptane-3-carboxylate], the Emax in assay [1] (setting [3]) came to 102%. The EC50 in assay [1] (Homo sapiens, T-cell, 120 h) worked out at 1830 nM; in assay [2], 835 nM.
